Test results as given in US7256209B2, “Pyrazole derivatives and diabetic medicine containing them” (Ajinomoto Co., Inc., priority 2000, dated 2007).

Legend:
[1] = system: Renal brush border membrane glucose uptake; assay: Inhibiting activity on renal brush border membrane glucose uptake; type: biochemical; settings: rat renal brush border membrane, sodium-dependent 14C-D-glucose uptake
Procedure: The test compound was dissolved in 100 mM Mannitol-10 mM HEPES/Tris (pH 7.4) and solutions having various concentrations were prepared.
Renal brush border membrane was prepared from a rat kidney and the solutions of the test compounds were added thereto and the product was incubated at 37° C. for 30 minutes. Then ^14C-D-glucose was added and the mixture was incubated for 1 minute. After tie reaction of glucose uptake was stopped by a solution containing 1 mM of phloridzin, the activity of ^14C-D-glucose on ^14C was measured by a liquid scintillation counter. The intensity of inhibition was calculated by subtracting the amount of taken glucose that is independent on sodium from the amount of taken glucose of the object samples.

[2] = system: male Wistar rats; assay: Activity on rat's sugar urine excretion; type: in vivo; settings: for The amount of excreted glucose in urine: 100 mg/kg oral, urine collected 24 hours, per day and individual; for activity on urinary glucose excretion as compared to Example 35 of WO01/16147 (in words): compared to Referential Example 1, Table 2; for activity on urinary glucose excretion (in words): oral administration, rat
Procedure: 5-week old male Wistar rats (purchased from Charles River Japan, Inc.) were used in the experiment after they were housed in a metabolic cage for about one week in advance. The test compounds were suspended in olive oil and 20 mg/ml solution was prepared so that the dosage given per 1 kg of the weight of the rats was 5 ml.
After the rats were not fed for 4 hours, the test compounds were orally administered to them at 11 a.m. Their urine was collected, from that taken just after the administration to that taken 24 hours after the administration and its volume was measured. Then, the concentration of glucose in urine was measured by glucose oxidase method and urinary glucose excreted per a day and an individual was calculated.

[3] = system: male Wistar rats; assay: Activity on rat's sugar urine excretion; type: in vivo; settings: for The amount of excreted glucose in urine: urine collected 24 hours, per day and individual

Row | SMILES | The amount of excreted glucose in urine [2] [mg] | activity on urinary glucose excretion as compared to Example 35 of WO01/16147 (in words) [2] | activity on urinary glucose excretion (in words) [2] | other results
1 | CSc1ccc(Cc2c(O[C@@H]3O[C@H](CO)[C@@H](O)[C@H](O)[C@H]3O)n[nH]c2C(F)(F)F)cc1 [Example Compound 1, 4-((4-methylthiophenyl)methyl)-5-(trifluoromethyl)-1H-pyrazole-3-O-β-D-glucopyranoside] | – | – | – | Inhibition intensity (concentration of the test compounds) ([1]; 10 μM test compound): 84% (10 μM)
2 | CCc1ccc(Cc2c(O[C@@H]3O[C@H](C(=O)O)[C@@H](O)[C@H](O)[C@H]3O)n[nH]c2C(F)(F)F)cc1 [Example Compound 2, 4-((4-ethylphenyl)methyl)-5-(trifluoromethyl)-1H-pyrazole-3-yl-O-β-D-glucopyranoside uronic acid] | – | – | – | Inhibition intensity (concentration of the test compounds) ([1]; 100 μM test compound): 30% (100 μM)
3 | CCc1ccc(Cc2c(O[C@@H]3O[C@H](COC(=O)OC)[C@@H](O)[C@H](O)[C@H]3O)nn(Cc3ccccc3)c2C(F)(F)F)cc1 [Example Compound 4, 4′-[(4′-ethylphenyl)methyl]-1′-benzyl-5′-trifluoromethyl-1H-pyrazole-3′-O-(6-carbomethoxy)-β-D-glucopyranoside] | 27 | – | – | –
4 | CCc1ccc(Cc2c(O[C@@H]3O[C@H](COC(=O)OC)[C@@H](O)[C@H](O)[C@H]3O)nn(Cc3ccc(OC)cc3)c2C(F)(F)F)cc1 [Example Compound 6, 4′-[(4′-ethylphenyl)methyl]-1′-[(4′-methoxyphenyl)methyl]-5′-trifluoromethyl-1H-pyrazole-3′-O-(6-carbomethoxy)-β-D-glucopyranoside] | 59 | – | – | –
5 | CCc1ccc(Cc2c(O[C@@H]3O[C@H](COC(=O)OC)[C@@H](O)[C@H](O)[C@H]3O)nn(-c3ccccc3)c2C(F)(F)F)cc1 [Example Compound 8, 4′-[(4′-ethylphenyl)methyl]-1′-phenyl-5′-trifluoromethyl-1H-pyrazole-3′-O-(6-carbomethoxy)-β-D-glucopyranoside] | 4.1 | – | – | –
6 | COC(=O)OC[C@H]1O[C@@H](Oc2nn(C(C)C)c(C)c2Cc2ccc(OC)c(F)c2)[C@H](O)[C@@H](O)[C@@H]1O [Example Compound 10, 4′-[(3′-fluoro-4′-methoxyphenyl)methyl]-1′-isopropyl-5′-methyl-1H-pyrazole-3′-O-(6-carbomethoxy)-β-D-glucopyranoside] | 734 | much higher activity | particularly high activity | –
7 | COC(=O)OC[C@H]1O[C@@H](Oc2nn(C(C)C)c(C)c2Cc2ccc(C)c(F)c2)[C@H](O)[C@@H](O)[C@@H]1O [Example Compound 14, 4′-[(3′-fluoro-4′-methylphenyl)methyl]-1′-isopropyl-5′-methyl-1H-pyrazole-3′-O-(6-carbomethoxy)-β-D-glucopyranoside] | 918 | much higher activity | particularly high activity | –
8 | CCc1ccc(Cc2c(O[C@@H]3O[C@H](COC(=O)OC)[C@@H](O)[C@H](O)[C@H]3O)nn(C(C)C)c2C)cc1 [Example Compound 16, 4′-[(4-ethylphenyl)methyl]-1′-isopropyl-5′-methyl-1H-pyrazole-3′-O-(6-carbomethoxy)-β-D-glucopyranoside] | 598 | much higher activity | particularly high activity | The amount of excreted glucose in urine ([3]; 3 mg/kg oral): 28 mg; The amount of excreted glucose in urine ([3]; 10 mg/kg oral): 263 mg; The amount of excreted glucose in urine ([3]; 30 mg/kg oral): 294 mg; activity on urinary glucose excretion (in words) ([3]; orally administered in lower doses such as 30 mg/kg or lower): still has high activity
9 | Cc1[nH]nc(O[C@@H]2O[C@H](CO)[C@@H](O)[C@H](O)[C@H]2O)c1Cc1ccc(OC(C)C)cc1 [Referential Example Compound 1, 4-[(4-isopropoxyphenyl)methyl]-5-methyl-1H-pyrazole-3-O-β-D-glucopyranoside, reference compound] | 14 | – | – | –
